Laboratory results taken from patent US10376520B2, “Methods for the treatment of cardiovascular disorders” (Galapagos NV, priority 2015, dated 2019).

Tested on: RA patients
Test: Atherogenic index, Study 2 (RA patients, monotherapy)
Type: in vivo, human
Description: As used herein, the term ‘atherogenic index’ refers to
Double-blind, placebo-controlled, monotherapy study in subjects with moderately to severely active RA who have an inadequate response to methotrexate (MTX) (oral or parenteral).
Twelve weeks of treatment with Compound 1 (dosed as a [Compound 1:HCl:3H2O]) at 50 mg, 100 mg, or 200 mg q.d.; or placebo. At Week 12, all subjects on placebo and the subjects on the 50 mg dose who have not achieved 20% improvement in swollen joint count (SJC66) and tender joint count (TJC68) will be assigned to 100 mg q.d. in a blinded fashion and will continue treatment until Week 24. Subjects in the other groups will maintain their randomized treatment until Week 24.
The atherogenic index has been identified to be a good predictor of cardiovascular disorders risks and is calculated as follows: […]

[1] = 50 mg q.d. non responders switching to 100 mg q.d., week 1
[2] = 50 mg q.d. non responders switching to 100 mg q.d., week 2
[3] = 50 mg q.d. non responders switching to 100 mg q.d., week 4
[4] = 50 mg q.d. non responders switching to 100 mg q.d., week 8
[5] = 50 mg q.d. non responders switching to 100 mg q.d., week 12
[6] = 50 mg q.d. non responders switching to 100 mg q.d., week 16
[7] = 50 mg q.d. non responders switching to 100 mg q.d., week 20
[8] = 50 mg q.d. non responders switching to 100 mg q.d., week 24

O=C(Nc1nc2cccc(-c3ccc(CN4CCS(=O)(=O)CC4)cc3)n2n1)C1CC1 [Compound 1, cyclopropanecarboxylic acid {5-[4-(1,1-dioxo-thiomorpholin-4-ylmethyl)-phenyl]-[1,2,4]triazolo[1,5-a]pyridin-2yl}-amide]
Atherogenic index Mean percentage CFB - 24 weeks results [1]: −0.49% | Atherogenic index Median CFB - 24 weeks results [1]: 0.00 mmol/L | Atherogenic index Median percentage CFB - 24 weeks results [1]: 0.00% | Atherogenic index Mean percentage CFB - 24 weeks results [2]: 0.40% | Atherogenic index Median CFB - 24 weeks results [2]: -0.10 mmol/L | Atherogenic index Median percentage CFB - 24 weeks results [2]: −2.38% | Atherogenic index Median CFB - 24 weeks results [3]: -0.20 mmol/L | Atherogenic index Median percentage CFB - 24 weeks results [3]: −6.67% | Atherogenic index Mean percentage CFB - 24 weeks results [4]: 3.03% | Atherogenic index Median CFB - 24 weeks results [4]: -0.20 mmol/L | Atherogenic index Median percentage CFB - 24 weeks results [4]: −6.82% | Atherogenic index Mean percentage CFB - 24 weeks results [5]: −2.71% | Atherogenic index Median CFB - 24 weeks results [5]: -0.20 mmol/L | Atherogenic index Median percentage CFB - 24 weeks results [5]: −5.88% | Atherogenic index Mean percentage CFB - 24 weeks results [6]: −3.31% | Atherogenic index Median CFB - 24 weeks results [6]: -0.20 mmol/L | Atherogenic index Median percentage CFB - 24 weeks results [6]: −5.00% | Atherogenic index Mean percentage CFB - 24 weeks results [7]: −3.58% | Atherogenic index Median CFB - 24 weeks results [7]: -0.20 mmol/L | Atherogenic index Median percentage CFB - 24 weeks results [7]: −5.88% | Atherogenic index Mean percentage CFB - 24 weeks results [8]: −7.04% | Atherogenic index Median CFB - 24 weeks results [8]: -0.30 mmol/L | Atherogenic index Median percentage CFB - 24 weeks results [8]: −9.97% | Atherogenic index Mean percentage CFB - 24 weeks results (50 mg q.d. responders, week 1): −0.34% | Atherogenic index Median CFB - 24 weeks results (50 mg q.d. responders, week 1): -0.10 mmol/L | Atherogenic index Mean percentage CFB - 24 weeks results (50 mg q.d. responders, week 2): −3.56% | Atherogenic index Median CFB - 24 weeks results (50 mg q.d. responders, week 2): -0.05 mmol/L | Atherogenic index Mean percentage CFB - 24 weeks results (50 mg q.d. responders, week 4): −2.87% | Atherogenic index Median CFB - 24 weeks results (50 mg q.d. responders, week 4): -0.25 mmol/L | Atherogenic index Median percentage CFB - 24 weeks results (50 mg q.d. responders, week 4): −7.69% | Atherogenic index Mean percentage CFB - 24 weeks results (50 mg q.d. responders, week 8): −2.06% | Atherogenic index Median CFB - 24 weeks results (50 mg q.d. responders, week 8): -0.10 mmol/L | Atherogenic index Mean percentage CFB - 24 weeks results (50 mg q.d. responders, week 12): 0.89% | Atherogenic index Median CFB - 24 weeks results (50 mg q.d. responders, week 12): -0.10 mmol/L | Atherogenic index Median percentage CFB - 24 weeks results (50 mg q.d. responders, week 12): −2.56% | Atherogenic index Mean percentage CFB - 24 weeks results (50 mg q.d. responders, week 16): 1.59% | Atherogenic index Median CFB - 24 weeks results (50 mg q.d. responders, week 16): 0.00 mmol/L | Atherogenic index Median percentage CFB - 24 weeks results (50 mg q.d. responders, week 16): 0.00% | Atherogenic index Median CFB - 24 weeks results (50 mg q.d. responders, week 20): -0.20 mmol/L | Atherogenic index Median percentage CFB - 24 weeks results (50 mg q.d. responders, week 20): −4.04% | Atherogenic index Median CFB - 24 weeks results (50 mg q.d. responders, week 24): -0.20 mmol/L | Atherogenic index Median percentage CFB - 24 weeks results (50 mg q.d. responders, week 24): −5.77% | Atherogenic index Mean CFB - 12 weeks results (50 mg q.d., week 1): 0.00 mmol/L | Atherogenic index Mean percentage CFB - 12 weeks results (50 mg q.d., week 1): −0.38% | Atherogenic index Median CFB - 12 weeks results (50 mg q.d., week 1): 0.00 mmol/L | Atherogenic index Median percentage CFB - 12 weeks results (50 mg q.d., week 1): 0.00% | Atherogenic index Mean CFB - 12 weeks results (50 mg q.d., week 2): -0.10 mmol/L | Atherogenic index Median CFB - 12 weeks results (50 mg q.d., week 2): -0.10 mmol/L | Atherogenic index Median percentage CFB - 12 weeks results (50 mg q.d., week 2): −2.38% | Atherogenic index Mean CFB - 12 weeks results (50 mg q.d., week 4): -0.13 mmol/L | Atherogenic index Mean percentage CFB - 12 weeks results (50 mg q.d., week 4): −2.63% | Atherogenic index Median CFB - 12 weeks results (50 mg q.d., week 4): -0.20 mmol/L | Atherogenic index Median percentage CFB - 12 weeks results (50 mg q.d., week 4): −7.69% | Atherogenic index Mean CFB - 12 weeks results (50 mg q.d., week 8): -0.03 mmol/L | Atherogenic index Mean percentage CFB - 12 weeks results (50 mg q.d., week 8): −0.95% | Atherogenic index Median CFB - 12 weeks results (50 mg q.d., week 8): -0.10 mmol/L | Atherogenic index Median percentage CFB - 12 weeks results (50 mg q.d., week 8): −2.70% | Atherogenic index Mean CFB - 12 weeks results (50 mg q.d., week 12): 0.01 mmol/L | Atherogenic index Mean percentage CFB - 12 weeks results (50 mg q.d., week 12): 0.09% | Atherogenic index Median CFB - 12 weeks results (50 mg q.d., week 12): -0.10 mmol/L | Atherogenic index Median percentage CFB - 12 weeks results (50 mg q.d., week 12): −3.85% | Atherogenic index Mean CFB - 12 weeks results (100 mg q.d., week 1): -0.05 mmol/L | Atherogenic index Mean percentage CFB - 12 weeks results (100 mg q.d., week 1): −0.84% | Atherogenic index Mean percentage CFB - 24 weeks results (100 mg q.d., week 1): −0.84% | Atherogenic index Median CFB - 12 weeks results (100 mg q.d., week 1): 0.00 mmol/L | Atherogenic index Median CFB - 24 weeks results (100 mg q.d., week 1): 0.00 mmol/L | Atherogenic index Median percentage CFB - 12 weeks results (100 mg q.d., week 1): 0.00% | Atherogenic index Median percentage CFB - 24 weeks results (100 mg q.d., week 1): 0.00% | Atherogenic index Mean CFB - 12 weeks results (100 mg q.d., week 2): -0.11 mmol/L | Atherogenic index Mean percentage CFB - 12 weeks results (100 mg q.d., week 2): −2.82% | Atherogenic index Mean percentage CFB - 24 weeks results (100 mg q.d., week 2): −2.82% | Atherogenic index Median CFB - 12 weeks results (100 mg q.d., week 2): -0.20 mmol/L | Atherogenic index Median CFB - 24 weeks results (100 mg q.d., week 2): -0.20 mmol/L | Atherogenic index Median percentage CFB - 12 weeks results (100 mg q.d., week 2): −6.25% | Atherogenic index Median percentage CFB - 24 weeks results (100 mg q.d., week 2): −6.25% | Atherogenic index Mean CFB - 12 weeks results (100 mg q.d., week 4): -0.19 mmol/L | Atherogenic index Mean percentage CFB - 12 weeks results (100 mg q.d., week 4): −4.17% | Atherogenic index Mean percentage CFB - 24 weeks results (100 mg q.d., week 4): −4.17%
